Laboratory results taken from patent publication US9518052B2, “Pyrazolopyridines and pyrazolopyrimidines” (Pfizer Inc., priority 2014, dated 2016).
pIC50: −log10 of the molar value. Structures can show the parent of a compound that is named as a salt.

Experiments:
Type in all cases: biochemical
Conditions in all cases: Caliper assay at 1 mM ATP
JAK1 = JAK1 (Homo sapiens (Human), UniProt P23458); assay: JAK Caliper Enzyme Assay at 1 mM ATP (JAK1)
Method: (§1) JAK Caliper Enzyme Assay at 1 mM ATP
(§2) Test article was solubilized in dimethyl sulfoxide (DMSO) to a stock concentration of 30 mM. An 11-point half log dilution series was created in DMSO with a top concentration of 600 μM. […] The compound plates were diluted 1 to 60 resulting in a top final assay compound concentration of 10 μM and a 2% DMSO concentration.
(§3) Test article and assay controls were added to a 384-well plate. Reaction mixtures contained 20 mM HEPES, pH 7.4, 10 mM magnesium chloride, 0.01% bovine serum albumin (BSA), 0.0005% Tween 20, 1 mM ATP and 1 μM peptide substrate. […] Enzyme concentrations and incubation times were optimized for each new enzyme preps and were modified slightly over time to ensure 20%-30% phosphorylation. The assays were stopped with a final concentration of 10 mM EDTA, 0.1% Coating Reagent and 100 mM HEPES, pH=7.4. The assay plates were placed on a Caliper Life Science Lab Chip 3000 (LC3000) instrument, and each well was sampled using appropriate separation conditions to measure the unphosphorylated and phosphorylated peptide.

JAK2 = JAK2 (Homo sapiens (Human), UniProt O60674); assay: JAK Caliper Enzyme Assay at 1 mM ATP (JAK2)
Method: as §1, §2, §3

JAK3 = JAK3 (Homo sapiens (Human), UniProt P52333); assay: JAK Caliper Enzyme Assay at 1 mM ATP (JAK3)
Method: as §1, §2, §3

TYK2 = TYK2 (Homo sapiens (Human), UniProt P29597); assay: JAK Caliper Enzyme Assay at 1 mM ATP (TYK2)
Method: as §1, §2, §3

JAK1, sequence (P23458 whole entry, species assumed): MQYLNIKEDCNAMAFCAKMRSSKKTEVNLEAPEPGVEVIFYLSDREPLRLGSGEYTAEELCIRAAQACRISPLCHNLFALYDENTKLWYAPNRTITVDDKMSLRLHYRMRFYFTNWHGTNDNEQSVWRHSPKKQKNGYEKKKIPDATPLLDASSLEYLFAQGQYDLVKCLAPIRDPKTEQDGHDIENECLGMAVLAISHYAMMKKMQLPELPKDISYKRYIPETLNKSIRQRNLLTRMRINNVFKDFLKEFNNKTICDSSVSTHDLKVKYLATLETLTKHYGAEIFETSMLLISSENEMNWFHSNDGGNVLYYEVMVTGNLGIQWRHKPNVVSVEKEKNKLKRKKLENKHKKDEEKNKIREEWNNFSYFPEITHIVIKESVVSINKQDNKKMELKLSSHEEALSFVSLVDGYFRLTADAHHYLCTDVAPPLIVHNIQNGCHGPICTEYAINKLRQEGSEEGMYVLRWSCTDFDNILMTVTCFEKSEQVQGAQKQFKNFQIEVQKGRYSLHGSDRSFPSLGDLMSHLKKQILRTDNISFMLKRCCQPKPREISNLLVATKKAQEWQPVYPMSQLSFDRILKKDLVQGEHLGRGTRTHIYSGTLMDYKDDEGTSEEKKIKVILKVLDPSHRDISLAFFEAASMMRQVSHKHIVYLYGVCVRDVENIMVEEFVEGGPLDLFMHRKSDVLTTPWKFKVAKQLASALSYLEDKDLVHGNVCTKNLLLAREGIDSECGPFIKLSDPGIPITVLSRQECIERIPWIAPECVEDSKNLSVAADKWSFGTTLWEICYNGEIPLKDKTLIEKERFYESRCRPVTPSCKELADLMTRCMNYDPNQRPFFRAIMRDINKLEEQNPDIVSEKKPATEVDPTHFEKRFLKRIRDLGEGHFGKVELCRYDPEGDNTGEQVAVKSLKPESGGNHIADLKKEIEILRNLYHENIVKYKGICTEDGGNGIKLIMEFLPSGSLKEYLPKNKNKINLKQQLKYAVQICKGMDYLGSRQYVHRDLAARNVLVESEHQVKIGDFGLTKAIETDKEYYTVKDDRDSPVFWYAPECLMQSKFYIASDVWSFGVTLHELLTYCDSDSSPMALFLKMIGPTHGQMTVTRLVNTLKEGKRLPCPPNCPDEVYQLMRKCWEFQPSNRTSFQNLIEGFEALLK
JAK2, sequence (O60674 whole entry, species assumed): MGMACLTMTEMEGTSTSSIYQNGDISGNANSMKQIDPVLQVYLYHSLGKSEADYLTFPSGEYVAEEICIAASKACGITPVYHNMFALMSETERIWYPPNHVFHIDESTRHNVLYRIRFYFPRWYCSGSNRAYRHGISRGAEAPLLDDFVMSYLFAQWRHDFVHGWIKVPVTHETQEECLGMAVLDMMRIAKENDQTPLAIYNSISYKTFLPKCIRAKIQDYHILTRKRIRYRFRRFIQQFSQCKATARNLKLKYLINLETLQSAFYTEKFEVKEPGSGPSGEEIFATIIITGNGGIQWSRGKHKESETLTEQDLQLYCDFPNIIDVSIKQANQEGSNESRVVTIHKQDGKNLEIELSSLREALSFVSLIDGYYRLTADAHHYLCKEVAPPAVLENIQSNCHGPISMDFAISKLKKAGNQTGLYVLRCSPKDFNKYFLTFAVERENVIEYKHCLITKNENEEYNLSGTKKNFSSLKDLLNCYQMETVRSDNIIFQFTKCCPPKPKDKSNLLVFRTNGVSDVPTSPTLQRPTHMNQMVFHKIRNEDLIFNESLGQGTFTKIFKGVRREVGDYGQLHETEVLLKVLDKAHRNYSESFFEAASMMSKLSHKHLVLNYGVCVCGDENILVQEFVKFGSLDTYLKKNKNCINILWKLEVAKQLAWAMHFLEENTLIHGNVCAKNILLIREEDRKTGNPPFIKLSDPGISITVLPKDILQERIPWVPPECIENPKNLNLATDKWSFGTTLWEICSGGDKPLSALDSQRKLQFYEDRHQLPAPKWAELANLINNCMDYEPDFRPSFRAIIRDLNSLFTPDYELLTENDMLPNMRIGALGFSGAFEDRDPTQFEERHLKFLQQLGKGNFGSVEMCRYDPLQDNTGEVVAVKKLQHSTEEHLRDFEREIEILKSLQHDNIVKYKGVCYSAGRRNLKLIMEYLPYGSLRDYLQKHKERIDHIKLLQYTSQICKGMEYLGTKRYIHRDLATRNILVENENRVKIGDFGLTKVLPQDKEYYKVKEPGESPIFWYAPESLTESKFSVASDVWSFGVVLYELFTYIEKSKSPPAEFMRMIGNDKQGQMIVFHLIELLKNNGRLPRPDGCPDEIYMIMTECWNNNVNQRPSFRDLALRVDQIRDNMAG
TYK2, sequence (P29597 whole entry, species assumed): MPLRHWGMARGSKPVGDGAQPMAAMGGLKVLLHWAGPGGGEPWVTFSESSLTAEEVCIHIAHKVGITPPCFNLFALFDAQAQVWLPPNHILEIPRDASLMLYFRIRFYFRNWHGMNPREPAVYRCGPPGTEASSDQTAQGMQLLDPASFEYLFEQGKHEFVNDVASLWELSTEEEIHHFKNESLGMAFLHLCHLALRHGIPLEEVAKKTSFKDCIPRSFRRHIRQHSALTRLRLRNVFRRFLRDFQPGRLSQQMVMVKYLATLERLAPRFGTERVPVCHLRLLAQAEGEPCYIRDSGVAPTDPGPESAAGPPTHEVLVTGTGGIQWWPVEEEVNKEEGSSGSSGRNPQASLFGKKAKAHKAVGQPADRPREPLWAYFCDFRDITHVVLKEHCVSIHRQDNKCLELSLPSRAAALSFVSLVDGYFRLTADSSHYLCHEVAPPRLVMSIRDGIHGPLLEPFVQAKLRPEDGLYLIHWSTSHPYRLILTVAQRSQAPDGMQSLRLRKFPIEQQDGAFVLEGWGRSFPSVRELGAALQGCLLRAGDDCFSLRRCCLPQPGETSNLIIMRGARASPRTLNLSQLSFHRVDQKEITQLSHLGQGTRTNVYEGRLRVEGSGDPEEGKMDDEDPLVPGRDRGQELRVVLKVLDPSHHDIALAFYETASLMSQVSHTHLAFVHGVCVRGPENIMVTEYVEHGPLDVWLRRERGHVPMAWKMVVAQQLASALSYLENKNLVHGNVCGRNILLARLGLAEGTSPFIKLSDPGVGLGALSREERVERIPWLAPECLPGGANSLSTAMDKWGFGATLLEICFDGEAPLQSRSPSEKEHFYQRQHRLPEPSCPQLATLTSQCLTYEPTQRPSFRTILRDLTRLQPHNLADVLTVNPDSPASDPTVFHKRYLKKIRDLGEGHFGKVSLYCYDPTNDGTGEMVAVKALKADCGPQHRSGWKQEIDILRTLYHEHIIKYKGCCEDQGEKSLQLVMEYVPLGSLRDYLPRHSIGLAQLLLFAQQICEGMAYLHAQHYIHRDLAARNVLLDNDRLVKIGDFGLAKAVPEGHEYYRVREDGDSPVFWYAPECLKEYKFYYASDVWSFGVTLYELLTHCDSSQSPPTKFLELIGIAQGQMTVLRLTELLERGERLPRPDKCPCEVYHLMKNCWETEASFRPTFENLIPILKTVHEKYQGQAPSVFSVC
JAK3, sequence (P52333 whole entry, species assumed): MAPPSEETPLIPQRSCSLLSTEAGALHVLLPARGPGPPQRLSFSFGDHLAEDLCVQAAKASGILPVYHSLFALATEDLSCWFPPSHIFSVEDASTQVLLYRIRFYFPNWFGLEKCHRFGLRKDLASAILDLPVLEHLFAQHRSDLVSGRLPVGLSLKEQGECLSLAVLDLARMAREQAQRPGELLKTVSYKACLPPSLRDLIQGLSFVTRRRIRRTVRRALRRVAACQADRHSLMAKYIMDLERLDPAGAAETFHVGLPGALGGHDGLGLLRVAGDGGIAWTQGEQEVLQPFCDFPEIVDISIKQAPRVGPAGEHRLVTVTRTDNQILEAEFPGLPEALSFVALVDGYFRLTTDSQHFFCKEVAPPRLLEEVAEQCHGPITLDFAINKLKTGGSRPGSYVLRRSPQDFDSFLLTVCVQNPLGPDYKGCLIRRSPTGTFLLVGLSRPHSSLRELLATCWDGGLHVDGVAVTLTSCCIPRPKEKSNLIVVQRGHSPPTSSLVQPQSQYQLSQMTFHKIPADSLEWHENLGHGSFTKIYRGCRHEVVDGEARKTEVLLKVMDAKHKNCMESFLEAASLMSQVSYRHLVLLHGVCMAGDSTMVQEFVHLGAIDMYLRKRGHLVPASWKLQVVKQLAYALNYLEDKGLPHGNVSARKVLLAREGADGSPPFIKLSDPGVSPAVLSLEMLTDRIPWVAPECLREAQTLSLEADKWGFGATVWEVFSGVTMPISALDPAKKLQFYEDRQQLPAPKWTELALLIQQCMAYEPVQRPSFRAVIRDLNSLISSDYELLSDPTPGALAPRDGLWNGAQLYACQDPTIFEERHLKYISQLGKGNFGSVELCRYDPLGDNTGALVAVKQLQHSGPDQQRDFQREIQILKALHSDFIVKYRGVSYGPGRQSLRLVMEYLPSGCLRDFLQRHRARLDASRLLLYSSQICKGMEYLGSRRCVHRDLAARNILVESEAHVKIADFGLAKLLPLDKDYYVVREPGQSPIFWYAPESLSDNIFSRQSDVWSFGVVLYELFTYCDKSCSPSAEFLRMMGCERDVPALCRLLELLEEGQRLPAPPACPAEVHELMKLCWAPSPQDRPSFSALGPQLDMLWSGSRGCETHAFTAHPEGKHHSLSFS

Row | pIC50 (JAK1) | pIC50 (JAK2) | pIC50 (JAK3) | pIC50 (TYK2) | SMILES
1 | 7.67 | 7.31 | 7.11 | 5.38 | Cc1ccc(N(C)S(C)(=O)=O)c(CNc2nc(-c3cc(F)c(O)cc3CC(F)(F)F)cc3[nH]ncc23)c1 [Example 150, N-{2-[({6-[5-Fluoro-4-hydroxy-2-(2,2,2-trifluoroethyl)phenyl]-1H-pyrazolo[4,3-c]pyridin-4-yl}amino)methyl]-4-methylphenyl}-N-methylmethanesulfonamide]
2 | 8.68 | 8.12 | 7.50 | 8.15 | CCc1cc(O)c(F)cc1-c1cc2[nH]nc(C(=O)NC)c2c(NCC(C)C)n1 [Example 5, 6-(2-ethyl-5-fluoro-4-hydroxyphenyl)-N-methyl-4-[(2-methylpropyl)amino]-1H-pyrazolo[4,3-c]pyridine-3-carboxamide]
3 | 8.47 | 8.10 | 7.55 | 6.05 | CCc1cc(O)c(F)cc1-c1cc2[nH]ncc2c(N(C)Cc2cc(C)ccc2N(CC)S(C)(=O)=O)n1 [Example 142, N-ethyl-N-[2-({[6-(2-ethyl-5-fluoro-4-hydroxyphenyl)-1H-pyrazolo[4,3-c]pyridin-4-yl](methyl)-amino}methyl)-4-methylphenyl]methanesulfonamide]
4 | > 9.30 | 8.77 | 8.12 | 7.69 | CCc1cc(O)c(F)cc1-c1cc2[nH]ncc2c(NCc2c(F)cccc2N(C)S(C)(=O)=O)n1 [Example 134, N-[2-({[6-(2-ethyl-5-fluoro-4-hydroxyphenyl)-1H-pyrazolo[4,3-c]pyridin-4-yl]amino}methyl)-3-fluorophenyl]-N-methylmethanesulfonamide hydrochloride]
5 | 8.19 | 7.51 | 6.97 | 6.17 | CNC(=O)c1n[nH]c2nc(-c3cc(F)c(O)cc3CC(F)(F)F)nc(NCc3ccccc3N(C)S(N)(=O)=O)c12 [Example 109, 6-(5-Fluoro-4-hydroxy-2-(2,2,2-trifluoroethyl)phenyl)-N-methyl-4-((2-(methyl(sulfamoyl)amino)benzyl)amino)-1H-pyrazolo[3,4-d]pyrimidine-3-carboxamide]
6 | 7.63 | 7.08 | 6.55 | 6.90 | CN(c1ccccc1CNc1nc(-c2cc(F)c(O)cc2CC(F)(F)F)cc2[nH]nc(C(N)=O)c12)S(=O)(=O)c1ccc(N2CCOCC2)nc1 [Example 65, 6-[5-fluoro-4-hydroxy-2-(2,2,2-trifluoroethyl)phenyl]-4-{[2-(methyl{[6-(morpholin-4-yl)pyridin-3-yl]sulfonyl}amino)benzyl]amino}-1H-pyrazolo[4,3-c]pyridine-3-carboxamide]
7 | 8.23 | 7.40 | 7.05 | 6.03 | CN(c1ncc(F)cc1CNc1nc(-c2cc(F)c(O)cc2CC(F)(F)F)cc2[nH]nc(C(N)=O)c12)S(C)(=O)=O [Example 78, 6-[5-Fluoro-4-hydroxy-2-(2,2,2-trifluoroethyl)phenyl]-4-[({5-fluoro-2-[methyl(methyl-sulfonyl)amino]pyridin-3-yl}methyl)amino]-1H-pyrazolo[4,3-c]pyridine-3-carboxamide]
8 | 7.97 | 7.23 | 6.76 | 6.16 | CCN(c1ncc(F)cc1CNc1nc(-c2cc(F)c(O)cc2CC(F)(F)F)cc2[nH]nc(C(N)=O)c12)S(C)(=O)=O [Example 79, 4-[({2-[ethyl(methylsulfonyl)amino]-5-fluoropyridin-3-yl}methyl)amino]-6-[5-fluoro-4-hydroxy-2-(2,2,2-trifluoroethyl)phenyl]-1H-pyrazolo[4,3-c]pyridine-3-carboxamide]
9 | 8.74 | 8.20 | 7.64 | 6.84 | CN(c1ccccc1CNc1nc(-c2cc(F)c(O)cc2CC(F)(F)F)cc2[nH]ncc12)S(C)(=O)=O [Example 148, N-{2-[({6-[5-Fluoro-4-hydroxy-2-(2,2,2-trifluoroethyl)phenyl]-1H-pyrazolo[4,3-c]pyridin-4-yl}amino)methyl]phenyl}-N-methylmethanesulfonamide]
10 | 8.77 | 8.04 | 7.31 | 8.19 | CCc1cc(O)c(F)cc1-c1cc2[nH]nc(C(=O)NC)c2c(NCc2cc(F)ccc2N(C)S(C)(=O)=O)n1 [Example 7, 6-(2-ethyl-5-fluoro-4-hydroxyphenyl)-4-({5-fluoro-2-[methyl(methyl-sulfonyl)amino]benzyl}amino)-N-methyl-1H-pyrazolo[4,3-c]pyridine-3-carboxamide]
11 | 8.18 | 7.53 | 6.94 | 7.25 | CNC(=O)c1n[nH]c2cc(-c3cc(F)c(O)cc3CC(F)(F)F)nc(NCc3ccccc3N(C)S(=O)(=O)CCOC)c12 [Example 60, 6-[5-fluoro-4-hydroxy-2-(2,2,2-trifluoroethyl)phenyl]-4-[(2-{[(2-methoxyethyl)sulfonyl](methyl)amino}benzyl)amino]-N-methyl-1H-pyrazolo[4,3-c]pyridine-3-carboxamide]
12 | 7.73 | 7.28 | 6.59 | 6.85 | CNC(=O)c1n[nH]c2cc(-c3cc(F)c(O)cc3CC(F)(F)F)nc(NCC3CCCC3)c12 [Example 17, 4-[(cyclopentylmethyl)-amino]-6-[5-fluoro-4-hydroxy-2-(2,2,2-trifluoro-ethyl)phenyl]-N-methyl-1H-pyrazolo[4,3-c]pyridine-3-carboxamide]
13 | 7.56 | 6.85 | 6.27 | 6.06 | CCN(c1ccc(Cl)cc1CNc1nc(-c2cc(F)c(O)cc2CC(F)(F)F)cc2[nH]nc(C(N)=O)c12)S(C)(=O)=O [Example 84, 4-((5-chloro-2-(N-ethylmethylsulfonamido)benzyl)amino)-6-(5-fluoro-4-hydroxy-2-(2,2,2-trifluoro-ethyl)phenyl)-1H-pyrazolo[4,3-c]pyridine-3-carboxamide]
14 | 8.89 | 8.15 | 7.48 | 8.34 | CCc1cc(O)c(F)cc1-c1cc2[nH]nc(C(=O)NC)c2c(NCc2cc(O)ccc2N(C)S(C)(=O)=O)n1 [Example 31, 6-(2-Ethyl-5-fluoro-4-hydroxyphenyl)-4-({5-hydroxy-2-[methyl(methylsulfonyl)amino]benzyl}amino)-N-methyl-1H-pyrazolo[4,3-c]pyridine-3-carboxamide]
15 | 7.99 | 7.26 | 6.63 | 7.17 | CNC(=O)c1n[nH]c2cc(-c3cc(F)c(O)cc3CC(F)(F)F)nc(NCc3ccccc3N(C)S(=O)(=O)c3cn[nH]c3)c12 [Example 58, 6-(5-fluoro-4-hydroxy-2-(2,2,2-trifluoroethyl)phenyl)-N-methyl-4-((2-(N-methyl-1H-pyrazole-4-sulfonamido)benzyl)amino)-1H-pyrazolo[4,3-c]pyridine-3-carboxamide]
16 | 8.48 | 7.82 | 7.20 | 7.57 | CN(c1ccccc1CNc1nc(-c2cc(F)c(O)cc2CC(F)(F)F)cc2[nH]nc(C(N)=O)c12)S(C)(=O)=O [Example 77, 6-[5-Fluoro-4-hydroxy-2-(2,2,2-trifluoroethyl)phenyl]-4-({2-[methyl(methylsulfonyl)amino]benzyl}amino)-1H-pyrazolo[4,3-c]pyridine-3-carboxamide]
17 | 7.79 | 7.32 | 7.14 | 5.69 | CNC(=O)c1n[nH]c2cc(-c3cc(F)c(O)cc3CC(F)(F)F)nc(NCc3cc(C)cnc3N(C)S(C)(=O)=O)c12 [Example 67, 6-[5-fluoro-4-hydroxy-2-(2,2,2-trifluoroethyl)phenyl]-N-methyl-4-[({5-methyl-2-[methyl(methylsulfonyl)amino]pyridin-3-yl}methyl)amino]-1H-pyrazolo[4,3-c]pyridine-3-carboxamide]
18 | 7.79 | 7.20 | 6.59 | 7.18 | CNC(=O)c1n[nH]c2cc(-c3cc(F)c(O)cc3CC(F)(F)F)nc(NCc3ccccc3N(C)S(=O)(=O)c3ccc(C)nc3)c12 [Example 69, 6-[5-fluoro-4-hydroxy-2-(2,2,2-trifluoroethyl)phenyl]-N-methyl-4-[(2-{methyl[(6-methylpyridin-3-yl)sulfonyl]amino}benzyl)amino]-1H-pyrazolo[4,3-c]pyridine-3-carboxamide]
19 |  | 7.78 | 7.56 | 5.70 | CCCCN(c1ccccc1CNc1nc(-c2cc(F)c(O)cc2CC)cc2[nH]ncc12)S(C)(=O)=O [Example 139]

Row | SMILES | pIC50 (JAK1) | pIC50 (JAK2) | pIC50 (JAK3) | pIC50 (TYK2)
20 | CCc1cc(O)ccc1-c1cc2[nH]ncc2c(NCc2c(C)cccc2N(C)S(C)(=O)=O)n1 [Example 127, N-[2-({[6-(2-ethyl-4-hydroxyphenyl)-1H-pyrazolo[4,3-c]pyridin-4-yl]amino}methyl)-3-methylphenyl]-N-methylmethanesulfonamide diethylamine salt] | 8.22 | 7.83 |  | 6.20
21 | CCc1cc(O)ccc1-c1cc2[nH]ncc2c(N2CCC(OC)CC2)n1 [Example 128, 3-ethyl-4-[4-(4-methoxypiperidin-1-yl)-1H-pyrazolo[4,3-c]pyridin-6-yl]phenol diethylamine salt] | 8.44 | 7.90 |  | 6.29
